Assay results taken from ChEMBL document CHEMBL1811798, “Synthesis and evaluation of 2'-O-allyl substituted dinucleotide cap analog for mRNA translation” (Bioorg Med Chem, 2010).
Calls of active or inactive are those of the source. No cut-off for these calls is given here.

Tests used:
Nucleic Acid [1] = experiment: Capping efficiency on beta-actin mRNA using [alpha-32P]-ATP at 1.6 mM after 2 hrs by gel shift assay in presence of T7 RNA polymerase; assay type: nucleic-acid assay
Nucleic Acid [2] = experiment: Capping efficiency on beta-actin mRNA using [alpha-32P]-ATP at 1.6 mM after 2 hrs by HPLC analysis in presence of T7 RNA polymerase; assay type: nucleic-acid assay
Escherichia phage T7 = experiment: Binding affinity to bacteriophage T7 RNA polymerase assessed as incorporation of compound into supercoiled mRNA transcript at 6 mM after 2 hrs
HeLa = experiment: Translational efficiency bacteriophage T7 RNA polymerase expressed in human HeLa cells assessed as protein production using 5'-capped RAN after 16 hrs of post-transfection by luciferase reporter gene assay relative to standard cap analog; assay type: cell-based; conditions: Escherichia phage T7

Structure (SMILES): C=CCO[C@@H]1[C@H](O)[C@@H](COP(=O)(O)OP(=O)([O-])OP(=O)(O)OC[C@H]2O[C@@H](n3cnc4c(=O)[nH]c(N)nc43)[C@H](O)[C@@H]2O)O[C@H]1[n+]1cn(C)c2c(=O)[nH]c(N)nc21
- Activity (Nucleic Acid [1]): 70%
- Activity (Nucleic Acid [2]): Active
- Activity (Escherichia phage T7): Active
- fold change (FC) (HeLa): 1.7
